Measured values taken from ChEMBL document CHEMBL1153358, “Amide analogs of antifungal dioxane-triazole derivatives: synthesis and in vitro activities” (Bioorg Med Chem Lett, 2009).
In brackets after ≈: the same amount, converted by molar mass.

What was measured:
Cryptococcus neoformans = assay: Antifungal activity against Cryptococcus neoformans TIMM 1855; format: functional
Candida albicans [1] = assay: Antifungal activity against Candida albicans SANK 51486; format: functional
Nakaseomyces glabratus = assay: Antifungal activity against Candida glabrata ATCC 90030; format: functional
Aspergillus flavus = assay: Antifungal activity against Aspergillus flavus SANK 18497; format: functional
Candida albicans [2] = assay: Antifungal activity against fluconazole-resistant Candida albicans TIMM3164; format: functional
Candida tropicalis = assay: Antifungal activity against Candida tropicalis ATCC 750; format: functional
Aspergillus fumigatus [3] = assay: Antifungal activity against Aspergillus fumigatus SANK 10569; format: functional
[4] = Bioavailability in rat at 20 mg/kg, po; format: ADME, organism-based; settings: in vivo
Candida albicans [5] = assay: Antifungal activity against Candida albicans ATCC 24433; format: functional
Aspergillus fumigatus [6] = assay: Antifungal activity against Aspergillus fumigatus ATCC 26430; format: functional
Candida parapsilosis = assay: Antifungal activity against Candida parapsilosis ATCC 90018; format: functional; settings: Lodderomyces parapsilosis
Pichia kudriavzevii = assay: Antifungal activity against Candida krusei ATCC 6258; format: functional
Candida albicans [7] = assay: Antifungal activity against Candida albicans ATCC 64550; format: functional
[8] = Chemical stability assessed as half life in HCl; format: physicochemical

In the case of `C[C@@H](S[C@H]1CO[C@H](c2ccc(C(=O)Nc3ccc(C#N)cc3F)cc2)OC1)[C@](O)(Cn1cncn1)c1ccc(F)cc1F`, the MIC (Cryptococcus neoformans) is reported as 0.063 µg/mL (≈ 0.103 µM), the MIC (Candida albicans [1]) is reported as no more than 0.008 µg/mL and the MIC (Nakaseomyces glabratus) is reported as greater than 4 µg/mL. The MIC (Aspergillus flavus) was 0.125 µg/mL (≈ 0.205 µM), the MIC (Candida albicans [2]) was 0.016 µg/mL (≈ 0.0262 µM) and the MIC (Candida tropicalis) was 0.031 µg/mL (≈ 0.0509 µM). It also gave an MIC (Aspergillus fumigatus [3]) of 0.031 µg/mL (≈ 0.0509 µM).
Work on `C[C@@H](S[C@H]1CO[C@H](/C=C/C(=O)Nc2ccc(F)cc2)OC1)[C@](O)(Cn1cncn1)c1ccc(F)cc1F` yielded an MIC (Cryptococcus neoformans) of 0.125 µg/mL (≈ 0.234 µM), an MIC (Candida albicans [1]) of less than 0.008 µg/mL and an MIC (Nakaseomyces glabratus) of 4 µg/mL (≈ 7.48 µM). The MIC (Aspergillus flavus) was 4 µg/mL (≈ 7.48 µM), the MIC (Candida albicans [2]) was 0.125 µg/mL (≈ 0.234 µM) and the MIC (Candida tropicalis) was 0.125 µg/mL (≈ 0.234 µM). The MIC (Aspergillus fumigatus [3]) was 0.5 µg/mL (≈ 0.935 µM).
`C[C@@H](S[C@H]1CO[C@H](c2ccc(C(=O)Nc3ccncc3)cc2)OC1)[C@](O)(Cn1cncn1)c1ccc(F)cc1F` gave an MIC (Cryptococcus neoformans) of 0.125 µg/mL (≈ 0.22 µM), an MIC (Candida albicans [1]) of no more than 0.008 µg/mL and an MIC (Nakaseomyces glabratus) greater than 4 µg/mL. For the same molecule, the MIC (Aspergillus flavus) was 0.25 µg/mL (≈ 0.44 µM), the MIC (Candida albicans [2]) was 0.031 µg/mL (≈ 0.0546 µM) and the MIC (Candida tropicalis) was 0.125 µg/mL (≈ 0.22 µM). For the same molecule, the MIC (Aspergillus fumigatus [3]) was 0.25 µg/mL (≈ 0.44 µM).
For `C[C@@H](S[C@H]1CO[C@H](c2ccc(C(=O)Nc3nccs3)cc2)OC1)[C@](O)(Cn1cncn1)c1ccc(F)cc1F`, the MIC (Cryptococcus neoformans) was 0.125 µg/mL (≈ 0.218 µM), the MIC (Candida albicans [1]) was no more than 0.008 µg/mL and the MIC (Nakaseomyces glabratus) was 2 µg/mL (≈ 3.49 µM). For the same molecule, the MIC (Aspergillus flavus) was 0.5 µg/mL (≈ 0.872 µM), the MIC (Candida albicans [2]) was 0.031 µg/mL (≈ 0.054 µM) and the MIC (Candida tropicalis) was 0.125 µg/mL (≈ 0.218 µM). For the same molecule, the MIC (Aspergillus fumigatus [3]) was 0.063 µg/mL (≈ 0.11 µM).
`C[C@@H](S[C@H]1CO[C@H](c2ccc(C(=O)N3CCSCC3)cc2)OC1)[C@](O)(Cn1cncn1)c1ccc(F)cc1F` showed an MIC (Cryptococcus neoformans) of 0.031 µg/mL (≈ 0.0538 µM), an MIC (Candida albicans [1]) of 0.016 µg/mL (≈ 0.0277 µM) and an MIC (Nakaseomyces glabratus) of 4 µg/mL (≈ 6.94 µM). For the same molecule, the MIC (Aspergillus flavus) was 4 µg/mL (≈ 6.94 µM), the MIC (Candida albicans [2]) was 0.125 µg/mL (≈ 0.217 µM) and the MIC (Candida tropicalis) was 0.5 µg/mL (≈ 0.867 µM). For the same molecule, the MIC (Aspergillus fumigatus [3]) was 0.5 µg/mL (≈ 0.867 µM).
With `C[C@@H](S[C@H]1CO[C@H](/C=C/C=C/c2ccc(F)cc2)OC1)[C@](O)(Cn1cncn1)c1ccc(F)cc1F` the MIC (Cryptococcus neoformans) was 0.016 µg/mL (≈ 0.0309 µM), the MIC (Candida albicans [1]) was no more than 0.008 µg/mL and the MIC (Nakaseomyces glabratus) was 1 µg/mL (≈ 1.93 µM). For the same molecule, the MIC (Aspergillus flavus) was 0.25 µg/mL (≈ 0.483 µM), the MIC (Candida albicans [2]) was 0.063 µg/mL (≈ 0.122 µM) and the MIC (Candida tropicalis) was 0.25 µg/mL (≈ 0.483 µM). It also gave an MIC (Aspergillus fumigatus [3]) of 0.063 µg/mL (≈ 0.122 µM).
With `C[C@@H](S[C@H]1CO[C@H](c2ccc(C(=O)N3CCOCC3)cc2)OC1)[C@](O)(Cn1cncn1)c1ccc(F)cc1F` the MIC (Cryptococcus neoformans) was 0.125 µg/mL (≈ 0.223 µM), the MIC (Candida albicans [1]) was 0.063 µg/mL (≈ 0.112 µM) and the MIC (Nakaseomyces glabratus) was greater than 4 µg/mL. For the same molecule, the MIC (Aspergillus flavus) was greater than 4 µg/mL, the MIC (Candida albicans [2]) was 0.25 µg/mL (≈ 0.446 µM) and the MIC (Candida tropicalis) was 1 µg/mL (≈ 1.78 µM). For the same molecule, the MIC (Aspergillus fumigatus [3]) was 4 µg/mL (≈ 7.13 µM).
`C[C@@H](S[C@H]1CO[C@H](c2ccc(C(=O)Nc3ccc(SC(F)(F)F)cc3)cc2)OC1)[C@](O)(Cn1cncn1)c1ccc(F)cc1F` showed an MIC (Cryptococcus neoformans) of 0.016 µg/mL (≈ 0.024 µM), an MIC (Candida albicans [1]) of no more than 0.008 µg/mL and an MIC (Nakaseomyces glabratus) of 1 µg/mL (≈ 1.5 µM). For the same molecule, the MIC (Aspergillus flavus) was 0.5 µg/mL (≈ 0.75 µM), the MIC (Candida albicans [2]) was 0.031 µg/mL (≈ 0.0465 µM) and the MIC (Candida tropicalis) was 0.031 µg/mL (≈ 0.0465 µM). It also gave an MIC (Aspergillus fumigatus [3]) of 0.25 µg/mL (≈ 0.375 µM).
For `C[C@@H](S[C@H]1CO[C@H](c2cccc(C(=O)Nc3ccc(C#N)cc3)c2)OC1)[C@](O)(Cn1cncn1)c1ccc(F)cc1F`, the MIC (Cryptococcus neoformans) was 1 µg/mL (≈ 1.69 µM), the MIC (Candida albicans [1]) was no more than 0.008 µg/mL and the MIC (Nakaseomyces glabratus) was 2 µg/mL (≈ 3.38 µM). For the same molecule, the MIC (Aspergillus flavus) was greater than 4 µg/mL, the MIC (Candida albicans [2]) was 0.25 µg/mL (≈ 0.423 µM) and the MIC (Candida tropicalis) was 1 µg/mL (≈ 1.69 µM). The MIC (Aspergillus fumigatus [3]) was 2 µg/mL (≈ 3.38 µM).
Molecule `C[C@@H](S[C@H]1CO[C@H](c2ccc3cc(C(=O)Nc4ccc(C#N)cc4)ccc3c2)OC1)[C@](O)(Cn1cncn1)c1ccc(F)cc1F` has an MIC (Cryptococcus neoformans) of 0.063 µg/mL (≈ 0.0982 µM), an MIC (Candida albicans [1]) of no more than 0.008 µg/mL and an MIC (Nakaseomyces glabratus) greater than 4 µg/mL. It also gave an MIC (Aspergillus flavus) of 0.25 µg/mL (≈ 0.39 µM), an MIC (Candida albicans [2]) of 0.031 µg/mL (≈ 0.0483 µM) and an MIC (Candida tropicalis) of 0.016 µg/mL (≈ 0.0249 µM). It also gave an MIC (Aspergillus fumigatus [3]) of 0.063 µg/mL (≈ 0.0982 µM).
Molecule `C[C@@H](S[C@H]1CO[C@H](/C=C/S(=O)(=O)c2ccc(F)cc2)OC1)[C@](O)(Cn1cncn1)c1ccc(F)cc1F.O=C(O)/C=C\C(=O)O` has an MIC (Cryptococcus neoformans) of 0.125 µg/mL, an MIC (Candida albicans [1]) of no more than 0.008 µg/mL and an MIC (Nakaseomyces glabratus) of 2 µg/mL. The MIC (Aspergillus flavus) was greater than 4 µg/mL, the MIC (Candida albicans [2]) was 0.125 µg/mL and the MIC (Candida tropicalis) was 0.5 µg/mL. The MIC (Aspergillus fumigatus [3]) was 4 µg/mL.
Work on `C[C@@H](S[C@H]1CO[C@H](/C=C/C=C/c2ccc(C#N)cc2F)OC1)[C@](O)(Cn1cncn1)c1ccc(F)cc1F` [EMBECONAZOLE] yielded an MIC (Cryptococcus neoformans) of 0.016 µg/mL (≈ 0.0295 µM), a bioavailability [4] of 113% and an MIC (Candida albicans [1]) of no more than 0.008 µg/mL. It also gave an MIC (Nakaseomyces glabratus) of 1 µg/mL (≈ 1.84 µM), an MIC (Aspergillus flavus) of 0.25 µg/mL (≈ 0.461 µM) and an MIC (Candida albicans [5]) of 0.016 µg/mL (≈ 0.0295 µM). The MIC (Candida albicans [2]) was 0.063 µg/mL (≈ 0.116 µM), the MIC (Aspergillus fumigatus [6]) was 0.063 µg/mL (≈ 0.116 µM) and the MIC (Candida tropicalis) was 0.25 µg/mL (≈ 0.461 µM). It also gave an MIC (Candida parapsilosis) of 0.016 µg/mL (≈ 0.0295 µM), an MIC (Pichia kudriavzevii) of 0.25 µg/mL (≈ 0.461 µM) and an MIC (Candida albicans [7]) of 0.5 µg/mL (≈ 0.922 µM). It also gave a half-life [8] of 6.4 min and an MIC (Aspergillus fumigatus [3]) of 0.063 µg/mL (≈ 0.116 µM).
With `OC(Cn1cncn1)(Cn1cncn1)c1ccc(F)cc1F` [FLUCONAZOLE] the MIC (Cryptococcus neoformans) was greater than 4 µg/mL, the MIC (Candida albicans [1]) was 0.25 µg/mL (≈ 0.816 µM) and the MIC (Nakaseomyces glabratus) was greater than 4 µg/mL. It also gave an MIC (Aspergillus flavus) greater than 4 µg/mL, an MIC (Candida albicans [5]) of 0.5 µg/mL (≈ 1.63 µM) and an MIC (Candida albicans [2]) greater than 4 µg/mL. For the same molecule, the MIC (Aspergillus fumigatus [6]) was greater than 4 µg/mL, the MIC (Candida tropicalis) was 2 µg/mL (≈ 6.53 µM) and the MIC (Candida parapsilosis) was 0.5 µg/mL (≈ 1.63 µM). For the same molecule, the MIC (Pichia kudriavzevii) was greater than 4 µg/mL, the MIC (Candida albicans [7]) was greater than 4 µg/mL and the MIC (Aspergillus fumigatus [3]) was greater than 4 µg/mL.
`CCC(C)n1ncn(-c2ccc(N3CCN(c4ccc(OCC5COC(Cn6cncn6)(c6ccc(Cl)cc6Cl)O5)cc4)CC3)cc2)c1=O` (stereo not given) [ITRACONAZOLE] showed an MIC (Cryptococcus neoformans) of 0.25 µg/mL (≈ 0.354 µM), an MIC (Candida albicans [1]) of 0.031 µg/mL (≈ 0.0439 µM) and an MIC (Nakaseomyces glabratus) of 1 µg/mL (≈ 1.42 µM). The MIC (Aspergillus flavus) was 0.5 µg/mL (≈ 0.709 µM), the MIC (Candida albicans [5]) was 0.125 µg/mL (≈ 0.177 µM) and the MIC (Candida albicans [2]) was 0.25 µg/mL (≈ 0.354 µM). For the same molecule, the MIC (Aspergillus fumigatus [6]) was 0.25 µg/mL (≈ 0.354 µM), the MIC (Candida tropicalis) was 0.5 µg/mL (≈ 0.709 µM) and the MIC (Candida parapsilosis) was 0.125 µg/mL (≈ 0.177 µM). The MIC (Pichia kudriavzevii) was 0.5 µg/mL (≈ 0.709 µM), the MIC (Candida albicans [7]) was 1 µg/mL (≈ 1.42 µM) and the MIC (Aspergillus fumigatus [3]) was 0.25 µg/mL (≈ 0.354 µM).
